How the values were obtained:
Assay type in all cases: cell-based
Candida albicans = experiment: Anti-biofilm activity, crystal violet spectrophotometric assay (Example 1); conditions: C. albicans
Protocol: (§1) The bacterial biofilm was formed in a sterile 96-well polystyrene plate. In short, a microbial suspension was prepared at an optical density of 0.5 McFarland for each strain. 20 μl of microbial suspension were added to each well containing 180 μl of VitE at various concentrations. Positive controls were performed by inoculating the bacteria in BHI+HA. Following incubation for 24 h at 37° C., the broth was removed, together with non-adherent microorganisms, and 200 μl of broth were added once again. The plates were incubated at 37° C. for another 48 h, until a mature biofilm was obtained.
(§2) The amount of biofilm was determined by means of a spectrophotometric assay, adopting the method developed by Christensen et al. (1985). At the end of the incubation period, the culture medium was removed and the wells covered by the biofilm were washed twice with a sterile saline solution and then dried. The biofilm was stained with 200 μl of a 5% crystal violet solution for 10 minutes. After staining, the wells were washed with a sterile saline solution to remove excess stain and left to dry completely. Lastly, 200 μl of 96% ethanol were added to each well to re-solubilize the stain included in the biofilm. Absorbance of the crystal violet was measured at 595 nm using a microplate reader. The assay was conducted in triplicate for each bacterial strain and repeated twice.

Escherichia coli = experiment: as above; conditions: E. coli
Protocol: as §1, §2

Pseudomonas aeruginosa [1] = experiment: as above; conditions: P. aeruginosa
Protocol: as §1, §2

Staphylococcus aureus = experiment: as above; conditions: S. aureus
Protocol: as §1, §2

[2] = tested on: Staphylococcus epidermidis; experiment: as above; conditions: S. epidermidis
Protocol: as §1, §2

Pseudomonas aeruginosa [3] = experiment: Biofilm on coated titanium disks, CFU count (Example 2); conditions: P. aeruginosa, vitamin E acetate 5 mg/cm^2, methylene blue 20 μg/cm^2
Source text: (§3) This study used clinically relevant strains isolated from patients with prosthetic joint infections at the Microbiology Laboratory of the IRCCS Galeazzi Orthopaedic Institute (Italy). In particular, the following were selected: a strain of methicillin-resistant Staphylococcus epidermidis, a strain of methicillin-resistant Staphylococcus aureus and a strain of Pseudomonas aeruginosa. These strains were identified beforehand by means of biochemical assays (VITEK® 2 Compact, bioMérieux, Marcy l'Etoile, France) and stored at −80° C. prior to the analysis. Before beginning the study, all strains underwent testing to assess their ability to produce biofilms according to the spectrophotometric assay described by Christensen et al. (J Clin Microbiol 1985; 22: 996-1006).
(§4) Sterile disks of sandblasted titanium with a diameter of 25 mm and a thickness of 5 mm (Adler Ortho, Cormano, Italy) were used as the substrate for the formation of biofilms. The disks were coated with sub-inhibitory concentrations of vitamin E acetate (5 mg/cm^2) or vitamin E acetate with the addition of methylene blue (20 μg/cm^2). […] Uncoated disks were used as negative controls. Subsequently, an overnight bacteria culture was resuspended in Brain Heart Infusion Broth (BHI; Biomérieux) at a density of 1.5×10^8 CFU/ml for each strain, and 200 microliters of microbial suspension were inoculated in sterile polystyrene plates with 6 wells containing coated and uncoated disks and 4.8 ml of BHI. The plates were incubated at 37° C. in an aerobic atmosphere for 24 and 48 hours. The test was performed in triplicate for each strain.
(§5) Upon completion of the biofilm incubation time, the disks were washed twice with a sterile saline solution to eliminate non-adherent bacteria. The disks were then immersed in 5 ml of a 0.1 w/v % dithiothreitol solution (DTT, Sigma-Aldrich, Milan, Italy) and mechanically stirred for 15 minutes at room temperature. Suitable dilutions of the fluids obtained were inoculated on Tryptic Soy Agar (TSA, Merck) and incubated at 37° C. in an aerobic atmosphere for 24 hours for the CFU count.

[4] = tested on: methicillin-resistant Staphylococcus epidermidis; experiment: as above; conditions: S. epidermidis, vitamin E acetate 5 mg/cm^2, methylene blue 20 μg/cm^2
Source text: as §3, §4, §5

## CC(=O)Oc1c(C)c(C)c2c(c1C)CCC(C)(CCC[C@H](C)CCC[C@H](C)CCCC(C)C)O2 (stereo partly drawn) [Vitamin E acetate, α-tocopherol acetate]
Candida albicans; 2.5% VitE in HA carrier
  reduction of microbial biofilm with respect to the control: 24%
Candida albicans; 5% VitE in HA carrier
  reduction of microbial biofilm with respect to the control: 37%
Escherichia coli; 2.5% VitE in HA carrier
  reduction of microbial biofilm with respect to the control: 18%
Escherichia coli; 5% VitE in HA carrier
  reduction of microbial biofilm with respect to the control: 38%
Pseudomonas aeruginosa [1]; 2.5% VitE in HA carrier
  reduction of microbial biofilm with respect to the control: 24%
Pseudomonas aeruginosa [1]; 5% VitE in HA carrier
  reduction of microbial biofilm with respect to the control: 39%
Staphylococcus aureus; 2.5% VitE in HA carrier
  reduction of microbial biofilm with respect to the control: 63%
Staphylococcus aureus; 5% VitE in HA carrier
  reduction of microbial biofilm with respect to the control: 79%
[2]; 2.5% VitE in HA carrier
  reduction of microbial biofilm with respect to the control: 30%
[2]; 5% VitE in HA carrier
  reduction of microbial biofilm with respect to the control: 46%
Pseudomonas aeruginosa [3]; 24 hours
  biofilm reduction with respect to the controls (in words): not after 24 hours
Pseudomonas aeruginosa [3]; 48 hours
  biofilm reduction with respect to the controls (in words): effective after 48 hours
[4]; 24 hours
  biofilm reduction with respect to the controls (in words): significant
[4]; 48 hours
  biofilm reduction with respect to the controls (in words): significant

Reference: US20190015385A1, “VITAMIN E PHOSPHATE OR ACETATE FOR USE IN THE TREATMENT AND PREVENTION OF BIOFILM INFECTIONS” (priority 2016, published 2019)
